Experiments:
[1] = Continuous absorption spectra of flavonoids, cannabinoids and chlorophylls; assay type: physicochemical; conditions: continuous absorption spectrum, FIG. 3A/3B
Text: (§1) For the in vitro validation of the Sequential Photonic Transfer (SPT) process, different molecules belonging to the groups of plant-derived compounds previously identified as potential targets have been selected. In particular, the selected molecules are morin and quercetin (flavonoids), cannabinol (CBN), cannabidiol (CBD), and cannabichromene (CBC) (cannabinoids), and chlorophyll A, which are fully representative examples of each target compound group. […] Flavonoids typically have absorption peaks around 260 and 380 nm, while cannabinoids have absorption peaks between 230 and 300 nm (FIG. 3A). […] For these compounds, their emission capacity at 460 nm (blue light) when excited by 280 and 320 nm light (UVB/A) and their emission capacity at 625 nm (red light) when excited by 460 nm light have been evaluated using spectrofluorimetry.
(§2) FIG. 3. […] Spectrofluorimetric quantification in hydroalcoholic standard solutions of emission at 460 nm (blue region of the electromagnetic spectrum) of different compounds after excitation at 280 or 320 nm (UVB/A) (C) and of emission at 625 nm (red region of the electromagnetic spectrum) after excitation at 460 nm (D) (Mn: Morin; Qc: Quercetin; CBD: cannabidiol; CBN: cannabinol; CBC: cannabichromene; Cl: chlorophyll A).

[2] = Spectrofluorimetric quantification of emission in hydroalcoholic standard solutions; assay type: physicochemical
Text: as §1, §2

[3] = In vitro ROS production by colorimetric Nitro Blue Tetrazolium (NBT) oxidation in hydroalcoholic solution; conditions: excited with UV light (310 nm), FIG. 4
Text: NBT is a specific molecular sensor for superoxide anion production, which is the first type of ROS produced during the reduction of molecular oxygen to generate water. In the presence of superoxide anion, NBT, a colorless molecule in its reduced state, oxidizes to form a chromophore with an absorption peak at 540 nm. The degree of oxidation, and therefore the absorbance at 540 nm, is directly proportional to ROS production. […] However, the combination of flavonoids/cannabinoids, chlorophyll A, and PpIX excited with UV light (310 nm) induces a potent and significant ROS production equivalent to that obtained by exciting PpIX with red light (FIG. 4).
FIG. 4. Quantification of in vitro ROS production measured as absorbance at 540 nm of Nitro Blue Tetrazolium (NBT) compound oxidized by […] production in hydroalcoholic solutions of different compound combinations under basal conditions or excited with UV (310 nm) or red (635 nm) light. Results are expressed as mean+/−standard deviation of three independent experiments. *, […]; ***, P≤0.01 (PpIX: Protoporphyrin IX; Mn: Morin; CBD: cannabidiol; Cl: chlorophyll A).

primary fibroblasts = experiment: Summary of examples: UVB radiation of primary fibroblasts; assay type: cell-based; conditions: summary statement on the examples

Row | SMILES | absorption peaks [1] | emission at 460 nm (blue light) ([2]; excited by 280 and 320 nm light (UVB/A), FIG. 3C) | emission at 625 nm (red light) ([2]; excited by 460 nm light (blue), FIG. 3D) | ROS production (NBT oxidation, absorbance at 540 nm) [3] | protection of cells from UVB radiation (primary fibroblasts) | stimulation of proliferation and extracellular matrix protein synthesis (primary fibroblasts)
1 | C=Cc1c(C)c2cc3nc(c4c5[n-]c(cc6nc(cc1[n-]2)C(C)=C6CC)c(C)c5C(=O)[C@@H]4C(=O)OC)[C@@H](CCC(=O)OC/C=C(\C)CCC[C@H](C)CCC[C@H](C)CCCC(C)C)[C@@H]3C.[Mg+2] [chlorophyll A] | around 450 nm | no emission of blue light | strong emission of red light | unable to induce significant NBT oxidation | neither capable of protecting against UVB radiation | nor stimulating cells in any way
2 | C=Cc1c(C)c2cc3nc(c4c5[n-]c(cc6nc(cc1[n-]2)C(C=O)=C6CC)c(C)c5C(=O)[C@@H]4C(=O)OC)[C@@H](CCC(=O)OC/C=C(\C)CCC[C@H](C)CCC[C@H](C)CCCC(C)C)[C@@H]3C.[Mg+2] [chlorophyll B] | around 450 nm |  |  |  |  | 
